Measurements reported in patent US6197258A, “Photoluminescent sensors of chemical analytes” (University of Maryland, Baltimore, priority 1999, dated 2001).
Where two headings read alike, the source gives them in different places.

Experiments:
[1] = target: T1, recombinant human carbonic anhydrase II, wild type, holoprotein (holo-CA, Zn(II) bound) (Homo sapiens, UniProt P00918); experiment: Affinity of ABD-M for holo-CA from changes in fluorescence intensity or anisotropy; format: binding; details: holocarbonic anhydrase
T1 construct: made in house; host or cells: E. coli (inferred from 'as previously described'; b198 states E. coli for the wild type gene, b110 states BL21(DE3)pACA for a variant)
From the text: Our approach for determining metal ions by fluorescence anisotropy is diagrammed in FIG. 16. ABD-M was synthesized by coupling ABD-F (7-fluoro-benz-2-oxa-1,3-diazole-4-sulfonamide; Molecular Probes Cat. No.F-6053) with excess beta-mercaptoethanol in dimethylformamide overnight at room temperature (FIG. 17). […] Recombinant human carbonic anhydrase II was expressed, isolated, and purified; and its Zn(II) removed by treatment with dipicolinate all as previously described. In view of the well-known difficulty of reproducibly preparing solutions with low concentrations of free zinc ion, we prepared a series of metal ion buffers using nitrilotriacetic acid (NTA) and MOPS. […] The concentration of Zn(II) unbound at a particular pH is readily calculable from the known stability constants of the NTA and the pKa's of NTA's ionizable groups (19). […]
Fluorescence spectra, intensities and anisotropies were measured on a Spectronics AB-2 fluorimeter using film polarizers and 4 nm bandpasses. Frequency-dependent phase shifts and demodulations were measured on an ISS K2 phase fluorometer using the UV lines of a Spectra-Physics 2065 argon ion laser for excitation, dimethylPOPOP in ethanol as a reference compound as previously described, and bandpass filters as indicated in the figure legends. […]

[2] = target: T2, wild type human carbonic anhydrase II, holoprotein (holo-CA) (Homo sapiens, UniProt P00918); experiment: KD of the diffusible inhibitor ABD-N for the holoprotein; format: binding
T2 construct: made in house; host or cells: E. coli
Description: Genes for wild type human carbonic anhydrase II and variants were isolated, constructed, and expressed in E. coli as previously described. ABD-N was synthesized by coupling ABD-F (Molecular Probes, Eugene, Oreg.) with excess ethanolamine in DMF at room temperature for 4 hours and lyophilizing. Zn(II) was removed from holo-CA to make apo-CA by treatment with dipicolinate as previously described. Fluorescence anisotropy measurements were obtained on an SLM AB-2 spectrophotofluorimeter according to the manufacturer's recommendations, under the spectral conditions given in the figures.
The changes in anisotropy are also dramatic, going from 0.08 to 0.23 as the apoprotein becomes saturated with Zn(II) (FIG. 37); the ordinary accuracy and precision of such measurements is ±0.003. The apparent KD of the enzyme for Zn(II) under these conditions is about 20 picomolar, which is somewhat higher than published values obtained under slightly different conditions.
The use of a separate, diffusible inhibitor like ABD-N can create difficulties, however. […] This Cu(II) determination, while clearly representing a […] response, cannot be due to simple collisional quenching by the Cu(II) at these low concentrations,and furthermore is more than one thousand-fold more sensitive than previous fluorescence-based determinations of Cu(II).

[3] = target: T3, recombinant human carbonic anhydrase II, holocarbonic anhydrase II (Homo sapiens, UniProt P00918); experiment: Affinity of holocarbonic anhydrase for Dapoxyl sulfonamide from fluorescence intensity changes; format: binding; details: from fluorescence intensity changes (data not shown)
T3 construct: made in house; host or cells: E. coli (inferred from 'by the means previously discussed herein'; b110 states E. coli BL21(DE3)pACA for a variant)
Description: The recombinant human carbonic anhydrase II was obtained by the means previously discussed herein. Fluorescence spectra and anisotropies were determined on a Spectronics AB-2 spectrophotofluorometer; the former are uncorrected. Fluorescence lifetimes were determined on an ISS K2 multifrequency phase fluorometer using the 442 nm line (30 mW) of a Kimmon HeCd laser (for BTCS) or the ultraviolet lines (100 mW) of a Spectra-Physics model 2065-7S argon ion laser (for dapoxyl sulfonamide) essentially as previously described. […]
In particular, emission of the bound form shifts from a peak at 605 nm to 530 nm, and increases about 90-fold, compared to the free form. […] The advantages of intensity ratios for accuracy in quantitating concentrations of metal ions such as calcium are by now widely appreciated. These intensity changes permit the affinity of holocarbonic anhydrase for Dapoxyl sulfonamide to be determined as […] (data not shown). The intensity increase of dapoxyl sulfonamide is also accompanied by a large increase in fluorescence lifetime. We measured the frequency-dependent phase angles and demodulation of dapoxyl sulfonamide free in solution, in the presence of holocarbonic anhydrase II, and in the presence of sonicated unilamellar vesicles of DOPC/cholesterol 3:1 (0.1 M). […]

[4] = target: T1, recombinant human carbonic anhydrase II, wild type, holoprotein (holo-CA, Zn(II) bound); details: comparison value, conditions not given; read-out: affinity (dansylamide, comparison value); cited from earlier work

NS(=O)(=O)c1ccc(SCCO)c2nonc12 [ABD-M, 7-fluorobenz-2-oxa-1,3,-diazole-4-sulfonamide+beta-mercaptoethanol adduct]
Kd [1]: 300 nM

NS(=O)(=O)c1ccc(NCCO)c2nonc12 [ABD-N, 7-fluorobenz-2-oxa-1,3,-diazole-4-sulfonamide:ethanolamine adduct]
Kd [2]: ~300 nM

CN(C)c1ccc(-c2cnc(-c3ccc(S(N)(=O)=O)cc3)o2)cc1 [Dapoxyl sulfonamide]
Kd [3]: 300 nM

CN(C)c1cccc2c(S(N)(=O)=O)cccc12 [dansylamide]
Kd [4]: 800 nM
